In paper PMC9721423, “Novel benzo chromene derivatives: design, synthesis, molecular docking, cell cycle arrest, and apoptosis induction in human acute myeloid leukemia HL-60 cells” (Journal of Enzyme Inhibition and Medicinal Chemistry, 2022):
Like-named read-outs stand apart in the source and are kept apart here.

What was measured:
Experiment in all cases: cells
Set-up in all cases: species or system NCI-60 human tumour cell lines; NCI-60 five-dose growth inhibition screen, sulforhodamine B protein stain
A549/ATCC = details: Homo sapiens, A549, 48 h
Protocol: (§1) All the newly synthesised 28 compounds were selected for single-dose testing. NCI60 single-dose testing is performed in all 60 cell lines according to the reported assay (National Cancer Institute, https://dtp.cancer.gov/) (National Cancer Institute https://dtp.cancer.gov/discovery_development/nci-60/), compounds were dissolved in DMSO: glycerol […] and are stored in a −70 °C freezer. The prepared compounds were added at single concentration of 1 0^−5 M and the culture was incubated for 48 h. End point determinations were made with a protein binding dye, sulforhodamine B (SRB). The human tumour cell lines were derived from nine different cancer types: leukaemia, melanoma, lung, colon, central nervous system (CNS), ovarian, renal, prostate, and breast cancers. Dose–response curves for these compounds were created by plotting the percentage growth (PGs or % growth) against log10 of the corresponding concentration for every cell line. Three response parameters, GI50 (Median Growth Inhibitory Concentration), TGI (Total Growth Inhibitory Concentration), and LC50 (Median Lethal Concentration) were calculated[54] (National Cancer Institute, https://dtp.cancer.gov/discovery_development/nci-60/) (National Cancer Institute, https://dtp.cancer.gov/)[55] for compounds 5a and 6a. […] Furthermore, the average sensitivity of all cell lines towards the compound is termed as the full panel mean graph midpoints (MG-MID). The ratio obtained by dividing the full panel mean graph midpoints (MG-MID) concentration by the individual subpanel MG-MID concentrations (obtained as the average sensitivity of all cell lines of a particular subpanel towards the test compound) is considered a criterion for the compound selectivity towards the corresponding cell line. Ratios greater than 6 indicate high selectivity while ratios between 3 and 6 refer to moderate selectivity whereas compounds not meeting either of these criteria were rated non-selective[56].

ACHN = details: Homo sapiens, ACHN, 48 h
Protocol: as §1

EKVX = details: Homo sapiens, EKVX, 48 h
Protocol: as §1

HCT-15 = details: Homo sapiens, HCT-15, 48 h
Protocol: as §1

HT29 = details: Homo sapiens, HT-29, 48 h
Protocol: as §1

IGROV1 = details: Homo sapiens, IGROV-1, 48 h
Protocol: as §1

K-562 = details: Homo sapiens, K562, 48 h
Protocol: as §1

KM12 = details: Homo sapiens, KM12, 48 h
Protocol: as §1

MALME-3M = details: Homo sapiens, Malme-3M, 48 h
Protocol: as §1

MCF7 = details: Homo sapiens, MCF7, 48 h
Protocol: as §1

MOLT-4 = details: Homo sapiens, MOLT-4, 48 h
Protocol: as §1

NCI-H460 = details: Homo sapiens, NCI-H460, 48 h
Protocol: as §1

PC-3 = details: Homo sapiens, PC-3, 48 h
Protocol: as §1

SF-268 = details: Homo sapiens, SF-268, 48 h
Protocol: as §1

SK-MEL-2 = details: Homo sapiens, SK-MEL-2, 48 h
Protocol: as §1

SN12C = details: Homo sapiens, SN12C, 48 h
Protocol: as §1

UACC-62 = details: Homo sapiens, UACC-62, 48 h
Protocol: as §1

N=C(NO)C1=C(N)Oc2c(ccc3ccccc23)C1c1ccccc1 (stereo not shown) [5a, 2-Amino-4-phenyl-N-hydroxy-4H-benzo[h]chromene-3-carboxamidine]
GI50 (A549/ATCC; read-out: GI50 5a): 420 nM | GI50 (ACHN; read-out: GI50 5a): 370 nM | GI50 (EKVX; read-out: GI50 5a): 820 nM | GI50 (HCT-15; read-out: GI50 5a): 130 nM | GI50 (HT29; read-out: GI50 5a): 480 nM | GI50 (IGROV1; read-out: GI50 5a): 330 nM | GI50 (K-562; read-out: GI50 5a): 60 nM | GI50 (KM12; read-out: GI50 5a): 220 nM | GI50 (MALME-3M; read-out: GI50 5a): 15600 nM | GI50 (MCF7; read-out: GI50 5a): 210 nM | GI50 (MOLT-4; read-out: GI50 5a): 430 nM | GI50 (NCI-H460; read-out: GI50 5a): 310 nM | GI50 (PC-3; read-out: GI50 5a): 230 nM | GI50 (SF-268; read-out: GI50 5a): 1320 nM | GI50 (SK-MEL-2; read-out: GI50 5a): 28700 nM | GI50 (SN12C; read-out: GI50 5a): 530 nM | GI50 (UACC-62; read-out: GI50 5a): 50 nM

CC(=O)NC1=C(C#N)C(c2ccccc2)c2ccc3ccccc3c2O1 (stereo not shown) [6a, N-(3-Cyano-4-phenyl-4H-benzo[h]chromen-2-yl)acetamide]
GI50 (A549/ATCC; read-out: GI50 6a): 980 nM | GI50 (ACHN; read-out: GI50 6a): 550 nM | GI50 (EKVX; read-out: GI50 6a): 49900 nM | GI50 (HCT-15; read-out: GI50 6a): 510 nM | GI50 (HT29; read-out: GI50 6a): 380 nM | GI50 (IGROV1; read-out: GI50 6a): 530 nM | GI50 (K-562; read-out: GI50 6a): 320 nM | GI50 (KM12; read-out: GI50 6a): 430 nM | GI50 (MALME-3M; read-out: GI50 6a): 670 nM | GI50 (MCF7; read-out: GI50 6a): 470 nM | GI50 (MOLT-4; read-out: GI50 6a): 490 nM | GI50 (NCI-H460; read-out: GI50 6a): 370 nM | GI50 (PC-3; read-out: GI50 6a): 460 nM | GI50 (SF-268; read-out: GI50 6a): 930 nM | GI50 (SK-MEL-2; read-out: GI50 6a): 650 nM | GI50 (SN12C; read-out: GI50 6a): 700 nM | GI50 (UACC-62; read-out: GI50 6a): 710 nM
